For 55 compounds, AC50 results are on record in PubChem BioAssay AID687029 (Broad Institute, 2013).

Each structure is given as a SMILES string.

The test system of the assay is RMG-1 viability, CellTiterGlo ATP luminescence, 96 h. The assay can be described thus: cytotoxicity in PAX8-dependent RMG-1 cells, dose response, cell-based, cherry-pick (AID 687029).
Consider `O=C(Nc1cccc(NC(=O)c2cccs2)c1)c1ccc([N+](=O)[O-])o1`, for which the AC50 (usually the midpoint of the concentration-response curve, whichever way the signal moves) is 11100 nM.

Take `c1cc2c(cc1C1=NNC(=NC3CC3)SC1)OCCO2`: the AC50 was less than 260 nM.

As for `COc1ccc(C)cc1NS(=O)(=O)c1ccc(-c2cnc(C3CC3)o2)cc1`, the AC50 was 376 nM.

For the compound `CCc1cc(-c2n[nH]c(C)c2-c2nc3ccccc3n2C)c(O)cc1O`, the AC50 is less than 260 nM.

Take `O=C(CCC(=O)c1ccccc1)NCCc1c[nH]c2ccccc12`: the AC50 was less than 260 nM.

For the compound `Cc1ccc(-c2csc3ncnc(Sc4nnc(CN5CCCCCC5=O)o4)c23)cc1`, the AC50 is 10800 nM.

For `COc1ccc(C(=O)c2ccc(Cl)c([N+](=O)[O-])c2)cc1`, the AC50 is less than 260 nM.

On to `O=C(c1cc([N+](=O)[O-])ccc1N1CCOCC1)N1CCN(c2ccccc2)CC1`, for which the AC50 was less than 260 nM.

For `CN1c2ccc(-c3cccc(F)c3)cc2[C@@H]2[C@@H](CCN2C(=O)Cc2ccccc2)[C@@H]1CO`, the half-maximal activity concentration (AC50) is 479 nM.

On to `C#CCN(C[C@@H]1[C@@H](OC(=O)NCC2CCCCC2)[C@@H](OC(=O)NCC2CCCCC2)Cn2c(=O)ccc(=O)n21)S(=O)(=O)c1ccc(C)cc1`, for which the AC50 is less than 260 nM.

As to `O=C(Nc1ccc(OCC(F)(F)C(F)F)c(C(F)(F)F)c1)c1ccccc1O`, the AC50 was less than 260 nM.

As to `O=C(CN1C(=O)c2ccccc2S1(=O)=O)c1ccc2c(c1)OCCO2`, the AC50 is less than 260 nM.

Turning to `CCN(CC(=O)Nc1c(F)cccc1F)C(=O)c1cc(S(=O)(=O)N(C)C)ccc1N1CCCC1`, the AC50 is less than 260 nM.

For `Cc1ccc(S(=O)(=O)CC(CN2CCCCC2)N2CCCCC2)cc1` (stereo not given), the AC50 is less than 260 nM.

As to `O=C(Nc1ccc(Cl)c(Cl)c1)N[C@@H]1CC[C@H](CCn2cc(C3CCCCC3)nn2)O[C@H]1CO`, the concentration at half-maximal activity (AC50) was less than 260 nM.

For the compound `CC(C)c1cc(C(=O)OCC(=O)N2CCN(C(=O)c3ccco3)CC2)c(O)c(C(C)C)c1`, the AC50 is less than 260 nM.

As to `C[C@@H]1CN([C@@H](C)CO)C(=O)Cc2cc(NS(=O)(=O)c3ccc(Cl)cc3)ccc2O[C@H]1CN(C)Cc1ccc(Oc2ccccc2)cc1`, the AC50 was less than 260 nM.

For `Cc1ccsc1/C=N/Nc1cccc(C(=O)O)c1`, the AC50 is 13200 nM.

In the case of `Cn1c(SCC(=O)c2ccccc2)nnc1-c1ccccn1`, the AC50 is 1420 nM.

With `COc1ccc(C2=NNC(=Nc3cc(S(=O)(=O)N(C)C)ccc3C)SC2)c(OC)c1`, the AC50 was less than 260 nM.

Regarding `CCCC1=Nc2cc(C(=O)NCCCOCC)ccc2Sc2ccccc21`, the AC50 was less than 260 nM.

Consider `C[C@@H]1CCCCO[C@H](CN(C)Cc2ccc(C(F)(F)F)cc2)[C@H](C)CN([C@H](C)CO)C(=O)c2cc(NS(=O)(=O)c3cccs3)ccc2O1`, for which the AC50 was less than 260 nM.

As for `C[C@H](CO)N1C[C@H](C)[C@H](CN(C)S(=O)(=O)c2ccc(Cl)cc2)OCCCC[C@H](C)Oc2ccc(NS(=O)(=O)c3ccc(F)cc3)cc2C1=O`, the AC50 is less than 260 nM.

In the case of `Brc1ccc(-n2cc(-c3ccccc3)c3c(NN4CCOCC4)ncnc32)cc1`, the AC50 was less than 260 nM.

On to `C[C@]12CCC3C(CCC4=CC(O)CC[C@@]43/C=N/O)C1(O)CCC2C1=CC(=O)OC1` (stereo not given in full), for which the AC50 is less than 260 nM.

In the case of `CC(C)CCCCCCCCCCCCC(=O)NCC(=O)NC1C(C)OC(Nc2ncnc3nc[nH]c23)C(O)C1O` (stereo not given), the AC50 is 275 nM.

On to `Cc1cc(Nc2ccc3c(c2)OCCO3)c2ccccc2n1`, for which the AC50 was less than 260 nM.

As for `CN(C(=O)OC(C)(C)C)c1ccc(-c2nc3ccccc3s2)cc1`, the AC50 is less than 260 nM.

In the case of `Cc1cnc(NC(=O)c2ccc3c(c2)OCCO3)s1`, the AC50 was less than 260 nM.

For `O=[N+]([O-])c1cccnc1S(=O)(=O)c1ccccc1`, the AC50 is less than 260 nM.

`CSC(=Nc1ccccc1)N=C(SCc1ccccc1)N(C)C`: the AC50 was less than 260 nM.

For the compound `S=c1sc2c(Cl)ncnc2n1-c1ccccc1`, the AC50 was less than 260 nM.

On to `O=c1cc(-c2ccccc2)oc2ccc3ccccc3c12`, for which the AC50 was less than 260 nM.

`COc1ccc(-c2nc3c(c(SCC(=O)Nc4cccc(O)c4)n2)Cc2c(CO)cnc(C)c2O3)cc1`: the AC50 was 10500 nM.

In the case of `COc1ccc(/C=N/NC(=O)c2[nH]c3ccc(Br)cc3c2-c2ccccc2)cc1`, the AC50 is less than 260 nM.

Consider `O=C(NC12CC3CC(CC(C3)C1)C2)c1ccc([N+](=O)[O-])o1`, for which the AC50 is less than 260 nM.

Regarding `C[C@@H]1CCCCO[C@@H](CN(C)Cc2ccc(C(F)(F)F)cc2)[C@@H](C)CN([C@@H](C)CO)C(=O)c2cc(NS(=O)(=O)c3ccc(F)cc3)ccc2O1`, the AC50 is 35500 nM.

Turning to `O=C(NCc1cc(C(F)(F)F)ccc1Cl)c1cccc2c1C(=O)c1ccc(N3CCC(N4CCCCC4)CC3)cc1S2(=O)=O`, the AC50 was less than 260 nM.

In the case of `Cc1nc(Nc2nc(CSc3nc4ccccc4[nH]3)cc(=O)[nH]2)nc2ccccc12`, the AC50 is less than 260 nM.

On to `COc1cc(C2C3=C(COC3=O)Oc3cc4c(cc32)OCO4)cc(OC)c1O` (stereo not given), for which the AC50 was less than 260 nM.

In the case of `Cc1ccc(NC(=O)CN(C)C(=O)Cn2ncc(Cl)c(Cl)c2=O)cc1`, the AC50 is less than 260 nM.

In the case of `CCCC(=O)NC1=C(Cl)C(=O)c2ccccc2C1=O`, the AC50 is less than 260 nM.

In the case of `CCC(c1nnnn1Cc1ccccc1)N1CCC(n2c(=O)[nH]c3ccccc32)CC1` (stereo not given), the AC50 is less than 260 nM.

As to `Cc1ccc(S(=O)(=O)Nc2ccc3c(c2)CC(=O)N([C@H](C)CO)C[C@H](C)[C@H](CN(C)S(=O)(=O)c2ccc(F)cc2)O3)cc1`, the AC50 was 4300 nM.

Take `C[C@@H]1CCCCO[C@@H](CN(C)C(=O)Nc2cccc3ccccc23)[C@H](C)CN([C@H](C)CO)C(=O)c2cc(NS(=O)(=O)c3ccccc3)ccc2O1`: the half-maximal activity concentration (AC50) is less than 260 nM.

Consider `O=C(Nc1cccc(-c2ccc(N3CCCCC3)nn2)c1)C(F)(F)F`, for which the half-maximal activity concentration (AC50) was less than 260 nM.

Take `COc1cc2nc(C3CCC3)nc(N3CCN(c4ccccc4OC)CC3)c2cc1OC`: the AC50 was less than 260 nM.

As to `Nc1nc(=S)c2[nH]cnc2[nH]1`, the AC50 was less than 260 nM.

As to `CCOc1ccc(-n2c(=S)sc3c(=O)[nH]c(SCC(=O)NCC4CCCO4)nc32)cc1` (stereo not given), the AC50 was less than 260 nM.

Take `CN1c2ccccc2N(C)C1(C)c1ccccc1`: the AC50 is less than 260 nM.

Take `COc1ccc(CCNc2nnc(Sc3nnnn3-c3ccccc3)s2)cc1OC`: the AC50 is 13000 nM.

With `Cc1ccc(Cl)cc1N1CCN(C(=O)c2noc(C)c2[N+](=O)[O-])CC1`, the AC50 is less than 260 nM.

For the compound `O=C(O)c1cccc(COc2ccc3c(c2)CCC3)c1`, the AC50 is less than 260 nM.

Consider `Cc1ccc2c(c1)c1c3n2CCN(CC(N)=O)C3CCC1` (stereo not given), for which the AC50 is 12300 nM.

Take `O=S(=O)(NCC1CCCO1)c1cnc(Cl)c(Br)c1` (stereo not given): the AC50 is less than 260 nM.
